Patent US12510533B2, “Methods for treating multiple myeloma and the use of companion biomarkers for 4-(4-(4-(((2-(2,6-dioxopiperidin-3-yl)-1-oxoisoindolin-4-yl)oxy)methyl)benzyl)piperazin-1-yl)-3-fluorobenzonitrile” (Celgene Corporation, priority 2018, dated 2025)

Assays:
[1] = test system: H929-1051 and OPM2-P10 cells; experiment: Apoptosis induction in H929-1051 and OPM2-P10 multiple myeloma cells; format: cell-based, human; conditions: 15 minute or 6 hour transient exposure
Description: FIG. 10 illustrates that continuous, but not transient, exposure to Compound 2 induced apoptosis in multiple myeloma cells. Apoptosis induction by Compound 2 treatment in a lenalidomide-resistant MM cell model (H929-1051 [top row] and a pomalidomide-resistant MM cell model OPM2-P10 [bottom row]) is presented.
The effect of Aiolos and Ikaros degradation on induction of apoptosis was also evaluated. The nearly complete and prolonged substrate suppression observed upon continuous exposure of Compound 2 coincided with apoptosis induction in MM cells (FIG. 10). A continuous single exposure to 0.01 and 0.1 μM Compound 2 led to induction of apoptosis in H929-1051 and OPM2-P10 cells (within 50 to 75 hours) (FIG. 10).

NCI-H929 = experiment: Tumor cell lysis by anti-CD3-activated, compound-treated PBMCs, co-culture with untreated NCI-H929; format: cell-based; conditions: Homo sapiens; lenalidomide-sensitive NCI-H929, untreated; 24-hour co-culture
H929-1051 cells = experiment: PBMC-induced MM cell lysis, PBMCs and MM cells both pretreated, versus single MM culture (H929-1051); format: cell-based, human; conditions: PBMCs and MM cells both preincubated 72 hours
Description: Ninety-six-well dishes were pre-coated with anti-CD3 antibody (OKT3, 3 μg/mL) and incubated at 4° C. overnight before the start of the experiment. Frozen PBMC donor cells were thawed at 37° C. for 2 minutes in RPMI medium with 10% FBS and cell counts and viability were measured on the Vi-CELL analyzer. Peripheral blood mononuclear cells were washed and diluted to 1×10^6 cells/mL and dispensed into the compound-treated plates in a total volume of 200 μL. Cells were incubated with Compound 2 for 2 hours before being transferred onto anti-CD3-coated plates and incubated for an additional 72 hours. At the same time, MM cell lines (NCI-H929, H929-1051, OPM2, OPM2-P10) were diluted to a final concentration of 0.1×10^6 cells/mL and labeled with CellTrace CFSE according to manufacturer's instructions. Multiple myeloma cell lines were then dispensed into compound-treated plates at a total volume of 200 μL and incubated for 72 hours. After 72 hours, the PBMCs and MM cells were counted and transferred into a U-bottom 96-well plate at a final T:E ratio of 1:5. After 24 hours coculture, specific target cell lysis by PBMC mediated apoptosis was measured using Annexin V-AF647 and 7-AAD according to manufacturer's instructions and samples were run on the Attune NxT Cytometer. […]

interferon gamma (IFN-γ) = experiment: IFN-γ production by TCR-activated healthy PBMCs; format: cell-based, human; conditions: 24 hours
Description: FIG. 21A-FIG. 21C illustrate that Compound 2 is a potent inducer of effector cytokines. […] (FIG. 21A) IL-2, (FIG. 21B) IFN-γ, and (FIG. 21C) TNF-α. Data shown are an average from three or four donors and are represented as fold change over DMSO control; error bars represent standard error of the mean (SEM).
The immunomodulatory activity of Compound 2 on T cell receptor (TCR)-activated healthy PBMCs was assessed. […] This increased in cytokine secretion was evident as early as 24 hours after introduction of Compound 2 with the peak of the effector cytokine production induced by Compound 2 being 5.5-fold for IL-2, 4.5-fold for interferon gamma (IFN-γ), and 2-fold for tumor necrosis factor alpha (TNF-α) above the vehicle control (FIG. 21A-FIG. 21C, respectively).

sBCMA = experiment: Phase 1 study, sBCMA in serum by ELISA; format: in vivo, human; conditions: one subject; with dexamethasone
Description: This is an open-label, multi-center, international, Phase 1 study to assess the safety, PK/PD and preliminary efficacy of Compound 2 in combination with dexamethasone in subjects with RRMM.
Serum samples were taken before and during Compound 2 treatment at specified time points. The expression of sBCMA was measured by an ELISA assay.

With `N#Cc1ccc(N2CCN(Cc3ccc(COc4cccc5c4CN([C@H]4CCC(=O)NC4=O)C5=O)cc3)CC2)c(F)c1` [Compound 2, (S)-4-(4-(4-(((2-(2,6-dioxopiperidin-3-yl)-1-oxoisoindolin-4-yl)oxy)methyl)benzyl)piperazin-1-yl)-3-fluorobenzonitrile] the “effect of transient exposure on apoptosis” value [1] was “precluded the induction of apoptosis”, the IC50 (NCI-H929) was 5 nM and the “enhancement of killing, IC50 of single MM culture versus immune and tumor cell co-culture” value (H929-1051 cells) was about 6000 fold. The “peak IFN-γ production above the vehicle control” value (interferon gamma (IFN-γ)) was 4.5 fold and the “decrease in sBCMA from baseline” value (sBCMA) was over 80%.
